Laboratory results reported in patent US9446039B2, “Aminoheteroaryl compounds as MTH1 inhibitors” (CEMM—FORSCHUNGSZENTRUM FÜR MOLEKULARE MEDIZIN GMBH, priority 2012, dated 2016).

How the values were obtained:
Format in all cases: binding
[1] = molecular target: SW480 colon carcinoma cells lysate proteins (Homo sapiens, UniProt P00441); conditions: PreyGene SOD1
[2] = molecular target: SW480 colon carcinoma cells lysate proteins (Homo sapiens, UniProt P06733); conditions: PreyGene ENO1
[3] = molecular target: T1, SW480 colon carcinoma cells lysate proteins (Homo sapiens, UniProt P12081); conditions: PreyGene HARS
T1 sequence (P12081 1-509): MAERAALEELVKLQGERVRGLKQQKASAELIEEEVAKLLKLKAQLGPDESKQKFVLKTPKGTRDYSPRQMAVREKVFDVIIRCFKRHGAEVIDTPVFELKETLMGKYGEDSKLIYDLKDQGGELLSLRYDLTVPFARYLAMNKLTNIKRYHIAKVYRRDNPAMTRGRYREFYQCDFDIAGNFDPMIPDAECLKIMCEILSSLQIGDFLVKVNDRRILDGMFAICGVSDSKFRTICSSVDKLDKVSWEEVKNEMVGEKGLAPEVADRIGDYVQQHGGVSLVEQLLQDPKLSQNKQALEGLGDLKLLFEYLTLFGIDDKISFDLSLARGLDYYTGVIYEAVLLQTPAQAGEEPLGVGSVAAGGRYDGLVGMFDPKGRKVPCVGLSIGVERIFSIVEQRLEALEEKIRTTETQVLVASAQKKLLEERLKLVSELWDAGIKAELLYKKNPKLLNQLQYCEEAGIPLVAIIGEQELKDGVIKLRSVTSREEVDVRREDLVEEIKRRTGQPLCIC

[4] = molecular target: SW480 colon carcinoma cells lysate proteins (Homo sapiens, UniProt P23528); conditions: PreyGene CFL1
[5] = molecular target: SW480 colon carcinoma cells lysate proteins (Homo sapiens, UniProt P26447); conditions: PreyGene S100A4
[6] = molecular target: T2, SW480 colon carcinoma cells lysate proteins (Homo sapiens, UniProt P61916); conditions: PreyGene NPC2
T2 sequence (P61916 20-151): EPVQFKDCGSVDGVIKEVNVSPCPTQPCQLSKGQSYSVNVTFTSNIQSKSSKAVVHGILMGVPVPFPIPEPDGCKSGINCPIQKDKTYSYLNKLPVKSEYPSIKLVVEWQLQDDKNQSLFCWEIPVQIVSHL

[7] = molecular target: T3, SW480 colon carcinoma cells lysate proteins (Homo sapiens, UniProt P68104); conditions: PreyGene EEF1A1; SW480 cells
T3 sequence (P68104 1-462): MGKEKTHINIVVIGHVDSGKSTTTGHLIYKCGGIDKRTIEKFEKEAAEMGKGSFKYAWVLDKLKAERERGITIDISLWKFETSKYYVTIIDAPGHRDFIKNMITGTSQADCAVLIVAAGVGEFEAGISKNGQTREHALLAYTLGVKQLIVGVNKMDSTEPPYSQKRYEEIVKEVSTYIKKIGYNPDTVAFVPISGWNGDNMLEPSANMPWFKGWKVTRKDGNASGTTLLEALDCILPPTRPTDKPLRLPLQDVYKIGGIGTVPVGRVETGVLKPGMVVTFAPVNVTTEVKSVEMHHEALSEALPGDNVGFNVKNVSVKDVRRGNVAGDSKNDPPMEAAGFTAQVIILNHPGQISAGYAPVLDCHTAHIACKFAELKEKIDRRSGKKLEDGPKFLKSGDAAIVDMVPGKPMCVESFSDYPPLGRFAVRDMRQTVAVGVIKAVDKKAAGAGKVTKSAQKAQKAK

[8] = molecular target: SW480 colon carcinoma cells lysate proteins (Homo sapiens, UniProt Q01518); conditions: PreyGene CAP1
[9] = molecular target: SW480 colon carcinoma cells lysate proteins (Homo sapiens, UniProt Q15365); conditions: PreyGene PCBP1; SW480 cells
[10] = molecular target: T4, SW480 colon carcinoma cells lysate proteins (Homo sapiens, UniProt Q16543); conditions: PreyGene CDC37
T4 sequence (Q16543 1-378): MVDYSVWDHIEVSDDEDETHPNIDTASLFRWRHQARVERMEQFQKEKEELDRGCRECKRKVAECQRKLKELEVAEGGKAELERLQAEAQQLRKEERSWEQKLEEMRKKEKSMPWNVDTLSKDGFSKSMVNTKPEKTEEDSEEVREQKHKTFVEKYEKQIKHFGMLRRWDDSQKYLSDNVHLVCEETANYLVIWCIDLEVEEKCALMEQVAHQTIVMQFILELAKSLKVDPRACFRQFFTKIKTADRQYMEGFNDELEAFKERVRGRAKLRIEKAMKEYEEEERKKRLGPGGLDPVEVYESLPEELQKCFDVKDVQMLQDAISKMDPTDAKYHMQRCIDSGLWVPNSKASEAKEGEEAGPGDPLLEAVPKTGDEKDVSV

Chain of SW480 colon carcinoma cells lysate proteins (Homo sapiens, UniProt Q01518) (Q01518 whole entry): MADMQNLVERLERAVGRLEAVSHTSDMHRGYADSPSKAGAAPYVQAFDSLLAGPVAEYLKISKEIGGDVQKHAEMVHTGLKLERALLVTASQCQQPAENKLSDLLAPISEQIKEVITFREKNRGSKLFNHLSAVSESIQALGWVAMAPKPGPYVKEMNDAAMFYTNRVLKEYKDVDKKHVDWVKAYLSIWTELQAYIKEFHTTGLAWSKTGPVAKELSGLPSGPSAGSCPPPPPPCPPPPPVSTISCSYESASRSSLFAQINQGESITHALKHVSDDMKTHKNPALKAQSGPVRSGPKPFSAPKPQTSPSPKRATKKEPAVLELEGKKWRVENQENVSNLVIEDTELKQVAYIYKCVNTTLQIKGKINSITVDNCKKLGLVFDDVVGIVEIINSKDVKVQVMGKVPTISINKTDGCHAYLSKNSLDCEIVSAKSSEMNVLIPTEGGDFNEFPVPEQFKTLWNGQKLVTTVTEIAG
Chain of SW480 colon carcinoma cells lysate proteins (Homo sapiens, UniProt P00441) (P00441 whole entry): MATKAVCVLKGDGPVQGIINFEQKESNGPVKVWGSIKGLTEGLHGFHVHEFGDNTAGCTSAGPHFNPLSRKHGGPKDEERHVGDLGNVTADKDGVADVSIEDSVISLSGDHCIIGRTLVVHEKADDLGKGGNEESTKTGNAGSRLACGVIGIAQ
Chain of SW480 colon carcinoma cells lysate proteins (Homo sapiens, UniProt P06733) (P06733 whole entry): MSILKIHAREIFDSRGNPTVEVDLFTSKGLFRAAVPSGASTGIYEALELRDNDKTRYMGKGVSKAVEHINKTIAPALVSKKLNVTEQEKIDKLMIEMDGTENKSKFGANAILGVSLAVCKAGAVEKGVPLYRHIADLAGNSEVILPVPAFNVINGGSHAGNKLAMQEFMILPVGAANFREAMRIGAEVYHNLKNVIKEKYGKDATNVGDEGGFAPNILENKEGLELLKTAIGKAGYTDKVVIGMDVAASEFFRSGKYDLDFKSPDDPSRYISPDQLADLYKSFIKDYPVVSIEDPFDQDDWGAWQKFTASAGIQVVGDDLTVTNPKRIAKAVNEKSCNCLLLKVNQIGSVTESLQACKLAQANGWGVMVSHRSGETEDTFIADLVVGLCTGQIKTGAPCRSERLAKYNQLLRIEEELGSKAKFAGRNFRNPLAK
Chain of SW480 colon carcinoma cells lysate proteins (Homo sapiens, UniProt P26447) (P26447 whole entry): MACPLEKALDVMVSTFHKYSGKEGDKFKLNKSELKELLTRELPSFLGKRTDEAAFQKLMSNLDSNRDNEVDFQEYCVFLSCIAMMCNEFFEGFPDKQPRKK
Chain of SW480 colon carcinoma cells lysate proteins (Homo sapiens, UniProt Q15365) (Q15365 whole entry): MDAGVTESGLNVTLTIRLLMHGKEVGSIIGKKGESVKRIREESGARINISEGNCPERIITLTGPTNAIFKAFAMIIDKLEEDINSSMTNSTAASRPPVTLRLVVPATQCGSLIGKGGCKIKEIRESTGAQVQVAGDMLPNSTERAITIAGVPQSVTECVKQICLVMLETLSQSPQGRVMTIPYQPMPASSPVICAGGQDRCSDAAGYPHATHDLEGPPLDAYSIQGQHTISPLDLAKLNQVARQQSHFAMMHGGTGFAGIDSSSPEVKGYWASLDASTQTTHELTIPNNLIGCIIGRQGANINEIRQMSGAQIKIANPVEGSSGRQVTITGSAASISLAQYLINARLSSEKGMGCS
Chain of SW480 colon carcinoma cells lysate proteins (Homo sapiens, UniProt P23528) (P23528 whole entry): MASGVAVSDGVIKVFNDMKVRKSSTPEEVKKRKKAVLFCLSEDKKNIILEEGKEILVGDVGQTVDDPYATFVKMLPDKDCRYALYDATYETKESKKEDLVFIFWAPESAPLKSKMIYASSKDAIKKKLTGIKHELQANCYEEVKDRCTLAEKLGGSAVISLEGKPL

C[C@H](Oc1cc(-c2cnn(C3CCNCC3)c2)cnc1N)c1c(Cl)ccc(F)c1Cl [(5)-crizotinib]
AvgP [1]: 0.3882 | SC.Exp. 1-1 [1]: 3 | SC.Exp. 1-2 [1]: 3 | SC.Exp. 2-1 [1]: 0 | SC.Exp. 2-2 [1]: 0 | Sum (SC.Exp.) [1]: 6 | AvgP [2]: 0.2209 | SC.Exp. 1-1 [2]: 29 | SC.Exp. 1-2 [2]: 28 | SC.Exp. 2-1 [2]: 7 | SC.Exp. 2-2 [2]: 7 | Sum (SC.Exp.) [2]: 71 | AvgP [3]: 0.3676 | SC.Exp. 1-1 [3]: 3 | SC.Exp. 1-2 [3]: 3 | SC.Exp. 2-1 [3]: 0 | SC.Exp. 2-2 [3]: 0 | Sum (SC.Exp.) [3]: 6 | AvgP [4]: 0.3871 | SC.Exp. 1-1 [4]: 12 | SC.Exp. 1-2 [4]: 11 | SC.Exp. 2-1 [4]: 1 | SC.Exp. 2-2 [4]: 0 | Sum (SC.Exp.) [4]: 24 | AvgP [5]: 0.3894 | SC.Exp. 1-1 [5]: 3 | SC.Exp. 1-2 [5]: 2 | SC.Exp. 2-1 [5]: 0 | SC.Exp. 2-2 [5]: 0 | Sum (SC.Exp.) [5]: 5 | AvgP [6]: 0.3813 | SC.Exp. 1-1 [6]: 2 | SC.Exp. 1-2 [6]: 2 | SC.Exp. 2-1 [6]: 0 | SC.Exp. 2-2 [6]: 0 | Sum (SC.Exp.) [6]: 4 | AvgP [7]: 0 | SC.Exp. 1-1 [7]: 23 | SC.Exp. 1-2 [7]: 21 | SC.Exp. 2-1 [7]: 8 | SC.Exp. 2-2 [7]: 8 | SC.Exp. Sum [7]: 60 | AvgP [8]: 0.3081 | SC.Exp. 1-1 [8]: 3 | SC.Exp. 1-2 [8]: 2 | SC.Exp. 2-1 [8]: 0 | SC.Exp. 2-2 [8]: 0 | Sum (SC.Exp.) [8]: 5 | AvgP [9]: 0 | SC.Exp. 1-1 [9]: 0 | SC.Exp. 1-2 [9]: 1 | SC.Exp. 2-1 [9]: 0 | SC.Exp. 2-2 [9]: 0 | SC.Exp. Sum [9]: 1 | AvgP [10]: 0.4343 | SC.Exp. 1-1 [10]: 3 | SC.Exp. 1-2 [10]: 3 | SC.Exp. 2-1 [10]: 0 | SC.Exp. 2-2 [10]: 0 | Sum (SC.Exp.) [10]: 6
